Experimental data: article PMC3499368, “Evolution of Minimal Specificity and Promiscuity in Steroid Hormone Receptors” (PLoS Genetics, 2012)
Like-named read-outs stand apart in the source and are kept apart here.

Tests used:
Type in all cases: cell-based
[1] = tested on: AncSR1_Alt3; assay: luciferase reporter assay, alternative reconstruction AncSR1_Alt3; settings: for activation (in words): Alt3, fold activation at 10^-6 M, Fig. S5C; for EC50: Alt3, Fig. S5B
Description: (§1) To determine the robustness of functional inferences to statistical uncertainty in the reconstruction of AncSR1 and AncSR2, we used two approaches. AncSR1 had too many ambiguously reconstructed sites to examine each such residue individually, so we computationally sampled from the posterior probability distribution of reconstructed amino acid states to generate a cloud of possible ancestral sequences, each harboring a large number of alternate states. Specifically, we generated 1,000,000 possible ancestral sequences by sampling from the posterior probability distribution of states at each site. […] We synthesized these five radically alternative ancestral reconstructions de novo and repeated the functional assays.
(§2) A) Distribution of posterior probabilities of 1 million protein sequences assembled by sampling amino acid states at each site from the posterior probability distribution for AncSR1 LBD. The ML reconstruction (AncSR1-ML) and the five alternative sequences with the highest posterior probability (Alt1-Alt5) in the 1 million samples are […]
(§3) The column height and error bars indicate the mean and SEM of three independent experiments, respectively. […]

[2] = tested on: AncSR1_Alt2; assay: luciferase reporter assay, alternative reconstruction AncSR1_Alt2; settings: for activation (in words): Alt2, fold activation at 10^-6 M, Fig. S5C; for EC50: Alt2, Fig. S5B
Description: as §1, §2, §3

[3] = tested on: AncSR1_Alt1; assay: luciferase reporter assay, alternative reconstruction AncSR1_Alt1; settings: for activation (in words): Alt1, fold activation at 10^-6 M, Fig. S5C; for EC50: Alt1, Fig. S5B
Description: as §1, §2, §3

[4] = tested on: AncSR1_Alt4; assay: luciferase reporter assay, alternative reconstruction AncSR1_Alt4; settings: for activation (in words): Alt4, fold activation at 10^-6 M, Fig. S5C; for EC50: Alt4, Fig. S5B
Description: as §1, §2, §3

[5] = tested on: AncSR1-LBD; assay: luciferase reporter gene assay, Gal4-DBD fusion of AncSR1-LBD in CHO-K1 cells, activation; settings: for activation (in words): fold activation at 10^-6 M, Fig. S5C; for Ratio H1/H2 of EC50, preference for aromatized A-ring / Ratio H2/H1 of EC50, preference for aromatized A-ring: AncSR1, Table S5 section b, pairs H1/H2: 18/19, 22/20, 8/23, listed as given under Hormone 1; for activation of AncSR1 (in words): luciferase reporter
Description: To experimentally test these hypotheses, we synthesized cDNAs for the AncSR1 and AncSR2 LBD protein sequences, expressed them as Gal4-DBD fusion constructs, and characterized their sensitivity to hormones using luciferase reporter gene assays.

[6] = tested on: AncSR1_Alt5; assay: luciferase reporter assay, alternative reconstruction AncSR1_Alt5; settings: for activation (in words): Alt5, fold activation at 10^-6 M, Fig. S5C; for EC50: Alt5, Fig. S5B
Description: as §1, §2, §3

[7] = tested on: AncSR2-LBD; assay: luciferase reporter gene assay, Gal4-DBD fusion of AncSR2-LBD in CHO-K1 cells, activation; settings: for Ratio H1/H2 of EC50, preference for 21-OH group vs. H group / Ratio H2/H1 of EC50, preference for 21-OH group vs. H group: AncSR2, Table S5 section f, pairs H1/H2: 1/6, 2/7; for Ratio H1/H2 of EC50, preference for 11-OH vs. H group / Ratio H2/H1 of EC50, preference for 11-OH vs. H group: AncSR2, Table S5 section g, pairs H1/H2: 1/3, 2/4; for EC50: AncSR2, representative dose activation curves (Fig. S4) and Table S5 sections c-i; for Ratio H1/H2 of EC50, preference for 17-acetyl vs. 17-hydroxy group / Ratio H2/H1 of EC50, preference for 17-acetyl vs. 17-hydroxy group: AncSR2, Table S5 section d, pairs H1/H2: 13/6, 17/8, 15/9, 16/10, 19/23; for Ratio H1/H2 of EC50, preference for 3-hydroxy vs. 3-keto group / Ratio H2/H1 of EC50, preference for 3-hydroxy vs. 3-keto group: AncSR2, Table S5 section e, pairs H1/H2: 18/17, 9/6, 15/13; for Ratio H1/H2 of EC50, preference for 19-H vs. 19-methyl group / Ratio H2/H1 of EC50, preference for 19-H vs. 19-methyl group: AncSR2, Table S5 section i, pairs H1/H2: 8/6, 17/13, 18/15; for activation of AncSR2 (in words): luciferase reporter
Description: To experimentally test these hypotheses, we synthesized cDNAs for the AncSR1 and AncSR2 LBD protein sequences, expressed them as Gal4-DBD fusion constructs, and characterized their sensitivity to hormones using luciferase reporter gene assays. […] It was unresponsive to a broad array of androgens, progestagens, and corticosteroids, as well as cholesterol (Figure 2A, Figure S3).
For AncSR2, we identified all plausible alternate reconstructions (those with posterior probability >0.20 excluding biochemically similar K/R, D/E, S/T, and I/L differences) and introduced each alternate state individually into the AncSR2 background using the Quikchange Mutagenesis kit (Stratagene), verified clones by sequencing, and repeated the activation assays with each version of AncSR2 (Figure S6). The ML AncSR2 sequence reconstructed on the ML tree had high baseline activation in the absence of ligand; this phenotype is almost certainly an artifact, because constitutive baseline activity is not present in any of AncSR2's extant descendants; it is well-established that some amino acid replacements can cause nuclear receptors to become constitutive by marginally stabilizing the active conformation in the absence of hormone. […] The “constitutive” Leu79 state is weakly supported on the ML tree (PP = 0.59), and has no support (PP = 0.00) on the phylogeny that is most parsimonious in terms of gene duplications and losses; in contrast, the “non-constitutive” state Met79 has PP = 0.41 on the ML tree and PP = 1.00 on the rearranged gene duplication/loss tree (Figure S12, Table S8). The AncSR2 sequence used for all experiments reported in the text therefore contains state Met79. The other alternate reconstructions were then reintroduced into this AncSR2 sequence: none qualitatively changed the receptor's sensitivity to the various classes of steroid hormones, except for A171V, which conferred constitutive activity (Figure S6).

[8] = listed as given under Hormone 1
[9] = AncSR1, representative dose activation curves (Fig. S3) and Table S5 section b
[10] = AncSR2, Table S5 section h, pairs H1/H2: 3/4, 6/7, listed as given under Hormone 1

11-deoxycorticosterone
activation (in words) [1]: none are activated
activation (in words) [2]: none are activated
activation (in words) [3]: none are activated
activation (in words) [4]: none are activated
activation (in words) ([5]; AncSR1-ML): none are activated
activation (in words) [6]: none are activated
EC80 ([7]; AncSR2, 11-deoxycorticosterone concentration used in inhibition assay): 0.0017 µM
Ratio H1/H2 of EC50, preference for 21-OH group vs. H group [7, 8]: 0.08
Ratio H2/H1 of EC50, preference for 21-OH group vs. H group [7, 8]: 13.10
Ratio H1/H2 of EC50, preference for 11-OH vs. H group [7, 8]: 1.35
Ratio H2/H1 of EC50, preference for 11-OH vs. H group [7, 8]: 0.74
EC50 ([7]; read-out: EC50): 0.00042 µM

C[C@]12CC[C@H]3[C@@H](CCC4=C[C@@H](O)CC[C@@]43C)[C@@H]1CC[C@@H]2O [4-androstenediol]
Ratio H1/H2 of EC50, preference for 17-acetyl vs. 17-hydroxy group [7, 8]: 119.09
Ratio H2/H1 of EC50, preference for 17-acetyl vs. 17-hydroxy group [7, 8]: 0.01
Ratio H1/H2 of EC50, preference for 3-hydroxy vs. 3-keto group [7, 8]: 2.26
Ratio H2/H1 of EC50, preference for 3-hydroxy vs. 3-keto group [7, 8]: 0.44
EC50 [7]: 0.262 µM

C[C@]12CCC(=O)C=C1CC[C@@H]1[C@@H]2CC[C@]2(C)C(=O)CC[C@@H]12 [4-androstenedione]
Ratio H1/H2 of EC50, preference for aromatized A-ring [5]: 144.93
Ratio H2/H1 of EC50, preference for aromatized A-ring [5]: 0.01
EC50 [5, 9]: > 10 µM
EC50 [7]: 0.411 µM

CC(=O)C1CCC2C3CCC4=CC(O)CCC4(C)C3CCC12C (stereo not shown) [4-pregnenolone]
Ratio H1/H2 of EC50, preference for 3-hydroxy vs. 3-keto group [7, 8]: 0.40
Ratio H2/H1 of EC50, preference for 3-hydroxy vs. 3-keto group [7, 8]: 2.50
EC50 [7]: 0.0022 µM

C[C@]12CC[C@H]3[C@@H](CC=C4C[C@@H](O)CC[C@@]43C)[C@@H]1CC[C@@H]2O [5-androstenediol]
Ratio H1/H2 of EC50, preference for 17-acetyl vs. 17-hydroxy group [7, 8]: 21.84
Ratio H2/H1 of EC50, preference for 17-acetyl vs. 17-hydroxy group [7, 8]: 0.05
EC50 [7]: 0.083 µM

CC(=O)C1CCC2C3CC=C4CC(O)CCC4(C)C3CCC12C (stereo not shown) [5-pregnenolone]
EC50 ([7]; read-out: EC50): 0.0038 µM

C[C@]12CCC(=O)C=C1CC[C@@H]1[C@@H]2CC[C@@]2(C)[C@H]1CC[C@]2(O)C(=O)CO [11-deoxycortisol]
Ratio H1/H2 of EC50, preference for 21-OH group vs. H group [7, 8]: 0.08
Ratio H2/H1 of EC50, preference for 21-OH group vs. H group [7, 8]: 12.67
Ratio H1/H2 of EC50, preference for 11-OH vs. H group [7, 8]: 0.15
Ratio H2/H1 of EC50, preference for 11-OH vs. H group [7, 8]: 6.53
EC50 ([7]; read-out: EC50): 0.0015 µM

CC(=O)[C@@]1(O)CC[C@H]2[C@@H]3CCC4=CC(=O)CC[C@]4(C)[C@H]3CC[C@@]21C [17α-hydroxyprogesterone]
EC50 ([7]; read-out: EC50): 0.019 µM

CC(=O)C1CCC2C3CCC4=CC(=O)CCC4C3CCC12C (stereo not shown) [19-norprogesterone]
Ratio H2/H1 of EC50, preference for aromatized A-ring [5]: 0.02
EC50 [5, 9]: > 10 µM
Ratio H1/H2 of EC50, preference for 19-H vs. 19-methyl group [7, 8]: 0.29
Ratio H2/H1 of EC50, preference for 19-H vs. 19-methyl group [7, 8]: 3.44
EC50 [7]: 0.0016 µM

CC12CCC3C4CCC(=O)C=C4CCC3C1CCC2O (stereo not shown) [19-nortestosterone]
Ratio H1/H2 of EC50, preference for 17-acetyl vs. 17-hydroxy group [7, 8]: 43.13
Ratio H2/H1 of EC50, preference for 17-acetyl vs. 17-hydroxy group [7, 8]: 0.02
Ratio H1/H2 of EC50, preference for 19-H vs. 19-methyl group [7, 8]: 0.59
Ratio H2/H1 of EC50, preference for 19-H vs. 19-methyl group [7, 8]: 1.68
EC50 [7]: 0.069 µM

C[C@H](O)[C@H]1CC[C@H]2[C@@H]3CCC4=CC(=O)CC[C@]4(C)[C@H]3CC[C@]12C [20α hydroxyprogesterone]
EC50 ([7]; read-out: EC50): 0.019 µM

C[C@@H](O)[C@H]1CC[C@H]2[C@@H]3CCC4=CC(=O)CC[C@]4(C)[C@H]3CC[C@]12C [20β hydroxyprogesterone]
EC50 ([7]; read-out: EC50): 0.01 µM

CC/C(=C(/CC)c1ccc(O)cc1)c1ccc(O)cc1 [Diethylstilbestrol]
activation of AncSR1 (in words) [5]: activated
activation of AncSR2 (in words) [7]: not activated

O=c1c(-c2ccc(O)cc2)coc2cc(O)cc(O)c12 [Genistein]
activation of AncSR1 (in words) [5]: activated
activation of AncSR2 (in words) [7]: not activated

C[C@]12CCC(=O)C=C1CC[C@@H]1[C@@H]2[C@@H](O)C[C@]2(C=O)[C@@H](C(=O)CO)CC[C@@H]12 [aldosterone]
EC50 ([7]; read-out: EC50): 0.0019 µM

CC12CCC3C4CCC(O)C=C4CCC3C1CCC2O (stereo not shown) [bolandiol]
Ratio H1/H2 of EC50, preference for aromatized A-ring [5]: 36.02
Ratio H2/H1 of EC50, preference for aromatized A-ring [5]: 0.03
EC50 [5, 9]: 1.77 µM
Ratio H1/H2 of EC50, preference for 3-hydroxy vs. 3-keto group [7, 8]: 0.29
Ratio H2/H1 of EC50, preference for 3-hydroxy vs. 3-keto group [7, 8]: 3.45
Ratio H1/H2 of EC50, preference for 19-H vs. 19-methyl group [7, 8]: 0.08
Ratio H2/H1 of EC50, preference for 19-H vs. 19-methyl group [7, 8]: 13.10
EC50 [7]: 0.02 µM

CC(C)CCC[C@@H](C)[C@H]1CC[C@H]2[C@@H]3CC=C4C[C@@H](O)CC[C@]4(C)[C@H]3CC[C@]12C [cholesterol]
activation of AncSR1 (in words) [5]: unresponsive
activation of AncSR2 (in words) [7]: completely unresponsive

C[C@]12C[C@H](O)[C@H]3[C@@H](CCC4=CC(=O)CC[C@@]43C)[C@@H]1CC[C@@H]2C(=O)CO [corticosterone]
Ratio H1/H2 of EC50, preference for 17a-H group vs. -OH group [7, 10]: 0.03
Ratio H2/H1 of EC50, preference for 17a-H group vs. -OH group [7, 10]: 31.61
EC50 ([7]; read-out: EC50): 0.00031 µM

C[C@]12CCC(=O)C[C@@H]1CC[C@@H]1[C@@H]2CC[C@]2(C)[C@@H](O)CC[C@@H]12 [dihydrotestosterone]
activation (in words) [1]: none are activated
activation (in words) [2]: none are activated
activation (in words) [3]: none are activated
activation (in words) [4]: none are activated
activation (in words) ([5]; AncSR1-ML): none are activated
activation (in words) [6]: none are activated
EC50 [7]: 0.172 µM

C[C@]12CC[C@@H]3c4ccc(O)cc4CC[C@H]3[C@@H]1C[C@@H](O)[C@@H]2O [estriol]
EC50 [1]: 0.149 µM
EC50 [2]: 2.22 µM
EC50 [3]: 0.322 µM
EC50 [4]: 2.01 µM
EC50 [5, 9]: 0.97 µM
EC50 ([5]; AncSR1-ML, Fig. S5B): 0.974 µM
EC50 [6]: 0.39 µM

C[C@]12CC[C@@H]3c4ccc(O)cc4CC[C@H]3[C@@H]1CCC2=O [estrone]
EC50 [1]: 0.042 µM
EC50 [2]: 3 µM
EC50 [3]: 0.133 µM
EC50 [4]: 0.844 µM
EC50 [5, 9]: 0.069 µM
EC50 ([5]; AncSR1-ML, Fig. S5B): 0.208 µM
EC50 [6]: 0.223 µM
